According to patent US11891386B2, “Indole compounds and their use” (ARIAGEN, INC., priority 2017, dated 2024):

How the values were obtained:
[1] = test system: IL-21 secretion from human CD4+ T cells; test: Suppression of IL-21 secretion by activated Th17 cells (ALPHALISA); type: cell-based; conditions: for IC50: 120 h, human CD4+ T cells under Th17 stimulation, 5 days; for potency in suppressing IL-21 secretion, in words: human CD4+ T cells
Source text: IL-21 is a pro-inflammatory cytokine secreted by CD4^+ Th17 cells and is thought to serve as a T-cell growth factor playing overlapping roles with IL-2. This Example describes a study that measured the IC50 values of the indole compounds disclosed herein for suppressing IL-21 secretion from human CD4^+ T cells that had been treated with stimulatory conditions that gave rise to TH17 cells (see, e.g., Dobritsa et al., J Biomol Screen. 18(1):75-84 (2013)).
Human CD4^+ T cells were purchased from Lonza Walkersville Inc. (Walkersville, MD). DMSO was obtained from Sigma (St. Louis, MO). Greiner cell culture plates, Gibco DMEM cell culture medium, media supplements, and antibiotics, as well as DYNABEADS Human T-Activator CD3/CD28 and R&D Systems TGF-β, IL-1β and IL-23 and Invitrogen IL-6 cytokines, were purchased through Fisher Scientific (Pittsburgh, PA). ALPHALISA assay plates and the Human Interleukin-21 ALPHALISA kit was obtained from Perkin Elmer (Boston, MA).
Cell culture plates were pre-coated with test compounds in serial dilutions for generating a 10-point, 3-fold dose response curve with a top concentration of 1 μM or 100 nM. To do this, compounds were dissolved in DMSO and added to an ECHO qualified plate for transfer to the cell culture plate with the ECHO555. The indole compounds to be tested were dissolved in […] and wells were backfilled with DMSO so that all treatments received 0.1% DMSO final volume. Positive control (0% inhibition) wells, in which compounds were replaced with […], were included on each plate. At least 15×10^6 frozen CD4^+ T cells per plate of compounds were thawed in a 37° C. water bath, and the cells were washed twice with 10 mL of the complete medium (DMEM supplemented with 10% fetal bovine serum (FBS), 100 U/mL penicillin, and 100 μg/mL streptomycin), followed by centrifugation (250×g, 10 min). Cells were re-suspended to the desired density, and cultured in 384-well treated sterile cell culture plates in a total volume of 50 μL per well. Each plate included wells with induced and un-induced cells.
Induced cells were activated in the complete medium with DYNABEADS Human T-Activator CD3/CD28 at a bead-to-cell ratio of 1:2.5 and stimulated with the following cytokines: transforming growth factor-β (TGF-β, 5 ng/mL), IL-6 (20 ng/mL), IL-23 (20 ng/mL), and IL-1β (10 ng/mL).
Un-induced cells were left in complete medium with no additional supplements. Plates were incubated at 37° C., 5% CO2 for a total of 5 days. Upon completion of the 5 day incubation period, cells were spun down (1,000×g, 1 min) and supernatant was transferred to the ALPHALISA assay plate using the Mosquito HTS liquid handler (TTP Labtech Inc., Cambridge, MA).
IL-21 levels in cell supernatants and cell-free control samples were measured using the ALPHALISA assay kit from Perkin Elmer, following the manufacturer's instructions. The assay was run at room temperature in 384-well ALPHAPLATES (cat. 6005350; Boston, MA). Briefly, immediately after transferring the cell supernatant to the assay plate, anti-IL-21 acceptor beads were added with the CERTUS FLEX liquid handler (LEAP Technologies, Morrisville, NC). The plate was sealed, spun down and incubated for 30 minutes. After incubation, the seal was removed, anti-IL-21 biotinylated antibody was added with the CERTUS FLEX, and the plate was sealed again, spun down and incubated for 60 minutes. Next, the seal was removed, streptavidin-coated donor beads were added with the CERTUS FLEX, and the plate was sealed, spun down and incubated for another 60 minutes. Finally, the seal was removed and the plate was read using the ENVISION reader (Perkin Elmer, Boston, MA) set with an excitation filter of 680 nm and an emission filter of 615 nm. Two independent IL-21 standard dilution curves were run per plate with analyte provided in the ALPHALISA kit.
For estimation of the assay performance, Z′ values were calculated for each plate, comparing positive and negative controls. […]

[2] = Hepatocyte intrinsic clearance assay, mouse hepatocytes; type: in vitro ADME; conditions: male, IRC/CD-1, cryopreserved mouse hepatocytes; Mouse Hepatocytes, 1 μM test compound
Source text: The liver is an important organ in the body for drug metabolism. This Example describes hepatocyte intrinsic clearance assays using both human and mouse hepatocytes to evaluate the metabolic stability of the indole compounds disclosed herein. The parameters measured include t1/2 (half-life), CLint (intrinsic clearance), and EH (hepatic extraction ratio).
Testosterone (Lot FE111011-01) was obtained from Cerilliant (Round Rock, TX). 7-hydroxycoumarin (Lot 11631ED) was obtained from Sigma Aldrich (St. Louis, MO). Cryopreserved human hepatocytes pooled from ten donor males (X008001), cryopreserved male IRC/CD-1 mouse hepatocytes (M005052), INVITROGRO HI Medium (incubation), and INVITROGRO HT Medium (thawing) were obtained from Bioreclamation IVT (Baltimore, MD). All solvents were obtained from commercial sources and used without further purification.
Each test compound was prepared as a 1 mM stock solution in DMSO. A 2 μM solution of test compound and positive controls were prepared in INVITROGRO HI Medium (incubation). These solutions were pre-warmed in a sterile incubator set to maintain 37° C., 5% CO2, and 98% humidity. Cryopreserved hepatocytes were prepared at a concentration of 2×10^6 living cells/mL in incubation media and pre-warmed in the incubator. The compound solutions and hepatocyte mixtures were then combined at a ratio of 1:1 (v:v). The final volume of the reaction mixture was 750 μL, containing 1 μM test compound (10 μM for 7-hydroxycoumarin) and […]. The reaction mixture was placed in the incubator on a plate shaker. After 0, 15, 30, 60, 90, and 120 minutes of incubation, 100 μL of reaction mixtures were removed from the incubation plate and mixed with 150 μL of ice-cold acetonitrile in a designated well of a 96-well crash plate. The 96-well crash plate was placed on ice for 15 min, and samples were centrifuged (3,600 RPM, 10 min, 4° C.) to precipitate protein. The supernatants were diluted 1:1 (v:v) with water containing 0.15 μM verapamil and/or 1 μM tolbutamide (internal standards for positive and negative modes, respectively) in a 96-well shallow injection plate. This plate was sealed for LC-MS analysis. All measurements were done in duplicate.
The residual compound remaining (% R) was determined from LC-MS peak areas by comparison to the zero time point. Metabolic half-life (t1/2) and intrinsic clearance (CLint) values were calculated from the slope of the plot of ln (% R) vs. time and the concentration of hepatocytes present in the incubation. Percent remaining at 60 minutes was calculated by plugging in the 60 minute value into the slope equation generated by the percent remaining time points.
In vivo hepatic clearance CLH was calculated using the well stirred liver model according to the following equation:
[formula] where QH is the total liver blood flow, fu is unbound fraction of the drug, and CL′int is defined as follows: CL′int=CLint×(10^6 cells/g of liver weight)×(g liver weight/kg of body weight). In the first approximation, used in this study, fu=1.
Hepatic extraction ratio EH was calculated using the following equation:
[formula] Corresponding physiological parameters used in calculations for all species are shown below in Table 5.

Compound | IC50 [1] [nM] | half-life at 1 μM [2] [h] | potency in suppressing IL-21 secretion, in words [1] | times more potent than ARI-087 ([1]; IL-21 secretion assay)
COC(=O)c1csc(C(=O)c2c[nH]c3ccccc23)n1 [ARI-001, ITE] | 38.2 | 0.0917 |  | 
CNC(=O)c1csc(C(=O)c2c[nH]c3ccccc23)n1 [ARI-004] | 231 | 0.0467 | weak activity | 
Cc1nc(-c2csc(C(=O)c3c[nH]c4ccccc34)n2)no1 [ARI-030, (1H-indol-3-yl)(4-(5-methyl-1,2,4-oxadiazol-3-yl)thiazol-2-yl)methanone] | 40 | 0.285 | among the least potent | 
Cc1noc(-c2csc(C(=O)c3c[nH]c4ccccc34)n2)n1 [ARI-031, (1H-indol-3-yl)(4-(3-methyl-1,2,4-oxadiazol-5-yl)thiazol-2-yl)methanone] | 42.6 | 11.7 | among the least potent | 
CNC(=O)c1csc(C(=O)c2c[nH]c3ccc(Cl)cc23)n1 [ARI-049, 2-(5-chloro-1H-indole-3-carbonyl)-N-methylthiazole-4-carboxamide] | 10.1 | 1.59 |  | 
COC(=O)c1csc(C(=O)c2c[nH]c3ccc(Cl)cc23)n1 [ARI-055, methyl 2-(5-chloro-1H-indole-3-carbonyl)thiazole-4-carboxylate] | 73.6 | 2.25 |  | 
O=C(c1nc(-c2nnco2)cs1)c1c[nH]c2ccccc12 [ARI-056, (4-(1,3,4-oxadiazol-2-yl)thiazol-2-yl)(1H-indol-3-yl)methanone] | 4.9 | 0.447 |  | 
Cc1nnc(-c2csc(C(=O)c3c[nH]c4ccccc34)n2)o1 [ARI-060, (1H-indol-3-yl)(4-(5-methyl-1,3,4-oxadiazol-2-yl)thiazol-2-yl)methanone] | 110 | 2.3 | among the least potent | 
CNC(=O)c1csc(C(=O)c2c[nH]c3ccc(F)cc23)n1 [ARI-065, 2-(5-fluoro-1H-indole-3-carbonyl)-N-methylthiazole-4-carboxamide] | 14 | 1.62 |  | 
COC(=O)c1csc(C(=O)c2c[nH]c3ccc(F)cc23)n1 [ARI-066, methyl 2-(5-fluoro-1H-indole-3-carbonyl)thiazole-4-carboxylate] | 48.6 | 0.223 |  | 
CCC(=O)c1csc(C(=O)c2c[nH]c3ccc(Cl)cc23)n1 [ARI-067, 1-(2-(5-chloro-1H-indole-3-carbonyl)thiazol-4-yl)propan-1-one] | 6.3 | 3.54 |  | 
Nc1nnc(-c2csc(C(=O)c3c[nH]c4ccccc34)n2)o1 [ARI-083, (4-(5-amino-1,3,4-oxadiazol-2-yl)thiazol-2-yl)(1H-indol-3-yl)methanone] | 0.3 | 16.1 | most potent | 
CCC(=O)c1csc(C(=O)c2c[nH]c3ccc(F)cc23)n1 [ARI-087, 1-(2-(5-fluoro-1H-indole-3-carbonyl)thiazol-4-yl)propan-1-one] | 25.4 | 1.84 |  | 
Nc1nnc(-c2csc(C(=O)c3c[nH]c4ccccc34)n2)s1 [ARI-090, (4-(5-amino-1,3,4-thiadiazol-2-yl)thiazol-2-yl)(1H-indol-3-yl)methanone] | 8.4 | 4.7 |  | 
Nc1nnc(-c2csc(C(=O)c3c[nH]c4c(F)cccc34)n2)o1 [ARI-118, (4-(5-amino-1,3,4-oxadiazol-2-yl)thiazol-2-yl)(7-fluoro-1H-indol-3-yl)methanone] | 0.8 | 14 | most potent | about 32 times
Nc1nnc(-c2csc(C(=O)c3c[nH]c4cc(Cl)c(Cl)cc34)n2)o1 [ARI-120, (4-(5-amino-1,3,4-oxadiazol-2-yl)thiazol-2-yl)(5,6-dichloro-1H-indol-3-yl)methanone] | 0.3 | 13.5 | most potent | 
CCC(=O)c1csc(C(=O)c2c[nH]c3c(F)cccc23)n1 [ARI-140, 1-(2-(7-fluoro-1H-indole-3-carbonyl)thiazol-4-yl)propan-1-one] | 8.6 | 7.5 |  | 
CCC(=O)c1csc(C(=O)c2c[nH]c3cccc(F)c23)n1 [ARI-142, 1-(2-(4-fluoro-1H-indole-3-carbonyl)thiazol-4-yl)propan-1-one] | 209 | 1.1 | least active in suppressing IL-21 secretion | 
CCC(=O)c1csc(C(=O)c2c[nH]c3cc(F)ccc23)n1 [ARI-143, 1-(2-(6-fluoro-1H-indole-3-carbonyl)thiazol-4-yl)propan-1-one] | 18.8 | 5.1 |  | 
NCc1nnc(-c2csc(C(=O)c3c[nH]c4c(F)cccc34)n2)o1 [ARI-145, (4-(5-(aminomethyl)-1,3,4-oxadiazol-2-yl)thiazol-2-yl)(7-fluoro-1H-indol-3-yl)methanone] | 46.9 | 2.27 |  | 
NCc1nc(-c2csc(C(=O)c3c[nH]c4c(F)cccc34)n2)no1 [ARI-146, (4-(5-(aminomethyl)-1,2,4-oxadiazol-3-yl)thiazol-2-yl)(7-fluoro-1H-indol-3-yl)methanone] | 13.4 | 1.67 |  | 
